# Several values for one entry are separate records, joined by “and”; a condition that tells them apart may be missing. Identical values can stand only once.
# How the values were obtained:
# growth hormone (GH) = assay: ACROBAT Edge Phase 2 study in acromegaly: GH levels; format: in vivo, human
# Description: (§1) An open label exploratory study designed to evaluate the safety, efficacy, and pharmacokinetics of Compound A (also known as paltusotine) in subjects with acromegaly that are treated with somatostatin analogue (SSA) based treatment regimens.
# (§2) 5 mg or 10 mg HMG capsule formulation. Multiple capsules were swallowed with water depending on dose specified for a given period/cohort. Enrolled patients began treatment with oral paltusotine 10 mg/day. The dose was up-titrated in a double-blind manner in 10-mg increments to a maximum 40 mg/day at weeks 4, 7 and 10 according to IGF-1 levels measured at weeks 2, 5, and 8, respectively. Up-titrations were performed if the investigator confirmed that the patient was tolerating the current dose and the unblinded central IGF-1 reader determined that IGF-1 was >0.9×ULN at week 2 and 5 or >1.0×ULN at week 8.
# [1] = system: insulin-like growth factor-1 (IGF-1); assay: ACROBAT Edge Phase 2 study in acromegaly: IGF-1 levels; format: in vivo, human
# Description: as §1, §2
# Primary Outcome Measures: Change from baseline (mean of Screening values) in insulin-like growth factor-1 (IGF-1) level [Time Frame: 13 Weeks].
# The primary hypothesis was that the group would show no change in the median IGF-1 at Week 13 versus baseline.
# IGF-1 [2] = assay: ACROBAT Advance long-term study: IGF-1; format: in vivo, human; conditions: once daily oral, 10-40 mg/day HMG capsules; interim results
# Description: (§3) ACROBAT Advance is an ongoing open-label, long-term (5 year) safety and efficacy study of paltusotine in patients rolling-over from the ACROBAT Evolve & Edge studies.
# (§4) Eligible patients completing ACROBAT Edge and Evolve entered ACROBAT Advance either immediately on completion of a washout period in the parent study or after a gap during which they reverted to their routine standard of care treatment. Paltusotine therapy: initiated at 10 mg/day and titrated up to maximum dose of 40 mg/day based on IGF-1 and tolerability. Patients were administered 10 mg HMG capsules. Combination therapy was allowed for patients not reaching therapeutic targets with 40 mg/day of paltusotine monotherapy.
# IGF-1 measured centrally with IDS-ISYS assay calibrated to WHO recombinant reference standard 02/254.
# [3] = Phase 1 single-and-multiple-dose study in healthy volunteers: oral glucose tolerance test / safety; format: in vivo, human; conditions: for change in fasting plasma glucose: multiple dosing up to 30 mg; for treatment emergent adverse events of hyperglycemia: repeated daily dosing 5-30 mg, OGTT after 10 days of dosing; for glucose concentration by 2 hours post challenge / peak glucose concentration 1 hour post oral glucose challenge: one subject
# Description: A phase 1, randomized, double-blind, placebo-controlled, single and multiple ascending dose study was performed with oral Compound A at a single study center. Inclusion criteria included age 18 to 50 years; body mass index of 18-30 kg/m^2; and if female, postmenopausal by history or surgery. Exclusion criteria included presence of significant medical history.
# In the single-dose phase, participants were randomized 6:2 to Compound A (1.25, 2.5, 5, 10, 20, 40, and 60 mg) or placebo in 7 cohorts (S1 to S7). Cohorts comparing oral bioavailability of solution versus capsules and the effect of a standardized high-fat, high-calorie breakfast on oral bioavailability of the capsule formulation employed the 10 mg dose level. In the multiple-dose phase, participants were randomized 6:3 to once-daily oral Compound A-HCl capsules or placebo at doses of 5 mg for 7 days (M1, Day Last=Day 7), and 10, 20, and 30 mg daily for 10 days (M2, M3, M4, Day Last=Day 10).
# Safety assessments: Safety assessments included monitoring of clinical laboratory tests, cardiovascular safety monitoring (continuous Holter monitoring, ECG, telemetry), and physical examinations conducted at scheduled times throughout the study in the research units as well as post-discharge (up to 9 days after the single-dose, or up to 11 days after the last dose for multiple-dose cohorts). Adverse events and concomitant medications were recorded. Laboratory samples for clinical chemistry, hematology, coagulation tests, and urinalysis were collected under fasted conditions.
# In the multiple-dose cohorts, baseline serum TSH, ACTH, and prolactin samples were collected on Day −2, and an oral glucose tolerance test (OGTT) was conducted on Day −7 or earlier. These assessments were repeated on Day 8 (M1) or Day 11 (M2 and subsequent cohorts).
# Clinically significant hypoglycemia occurred in 1 subject in Cohort M3 (Compound A-HCl−10 days at 20 mg/day) at 2 and at 3 hours post-glucose challenge, and in 1 subject in Cohort M4 (Compound A-HCl−10 days at 30 mg/day) at 3 hours post-glucose challenge at the baseline assessment (Day −7).
# subjects with acromegaly [4] = assay: ACROBAT Advance long-term study: safety and tolerability; format: in vivo, human; conditions: acromegaly patients; including in combination with cabergoline
# Description: as §3, §4
# [5] = Phase 1 multi-cohort single dose study: relative bioavailability and PK of SDD tablets vs HMG capsules; format: in vivo, human
# Description: The study was conducted in up to 3 cohorts, each with a specific primary objective: • Cohort 1: To characterize performance of 10 mg tablets prepared by spray-dried dispersion (SDD) of Compound A-HCl salt. • Cohort 2: To evaluate the relative bioavailability of 10 mg SDD tablets compared to the Compound A-HCl hot melt granulation (HMG) formulation, 10 mg capsules. To determine the effect of timing of food administration on pharmacokinetics of low dose of the 10 mg SDD tablets. • Cohort 3: To determine the effect of timing of food administration on pharmacokinetics of SDD tablets and dose proportionality in doses higher than 20 mg. To determine the optimal dosing regimen that results in adequate systemic exposure with short post-dose fasting duration. • Cohort 4: To determine the effect of timing of food administration on pharmacokinetics of SDD tablets in doses higher than 20 mg. To determine the optimal dosing regimen of paltusotine that results in high systemic exposure with low post-dose fasting duration • Cohort 5: To determine the effect of the proton-pump inhibitor (PPI), lansoprazole, on the pharmacokinetics of a 60 mg dose of SDD tablets. To determine the effect of a low-fat meal on the pharmacokinetics of a 60 mg dose of SDD tablets.
# The SDD tablets were evaluated. Up to twelve (12) healthy male and female subjects were enrolled in each cohort. Cohort 1 consisted of 4 periods: In Period 1, subjects were administered a proton-pump inhibitor (lansoprazole, 15 mg BID for 3 days (from Day −3), taken orally at least 30 min prior to a meal, once in the morning and once in the evening). On the fourth day (Day 1 of study), fasted subjects will take the last dose of lansoprazole (15 mg) 60 min prior to 20 mg Compound A (2×10 mg of the SDD tablets). In Period 2, fasted subjects were administered 20 mg Compound A (2×10 mg of the SDD tablets). In Period 3, fasted subjects were administered 20 mg Compound A (2×10 mg of the SDD tablets) with a high-fat, high-calorie meal. In Period 4, fasted subjects will take up to 80 mg Compound A (up to 8×10 mg of the SDD tablets). […]
# [6] = Clinical studies: bioavailability and half-life of Compound A; format: in vivo; conditions: human, plasma, oral
# Excerpt: Compound A is a selective nonpeptide SST2 biased agonist. […] In some embodiments, Compound A is used to treat acromegaly, neuroendocrine tumors, or both. In some embodiments, Compound A is used to treat acromegaly. In some embodiments, Compound A is used to treat neuroendocrine tumors. In some embodiments, Compound A is used to treat pituitary gigantism.
# subjects with acromegaly [7] = assay: ACROBAT Edge: patient reported outcomes (Acromegaly Symptom Diary, PGI-I); format: in vivo, human
# Description: Patients recorded daily acromegaly symptoms using a nine-item Acromegaly Symptom Diary (ASD). The ASD is a 9-item patient-reported measure of symptoms associated with acromegaly, including headache, joint pain, sweating, fatigue, leg weakness, swelling, numbness/tingling, sleep difficulties, and short-term memory difficulties. Symptoms experienced in the previous 24 hours are rated on an 11-point scale, from 0 (no symptom) to 10 (worst symptom). Patient Global Impression of Improvement (PGI-I) scale was completed at week 13 (end of treatment).
# IGF-1 [8] = assay: Phase 2 clinical trials of acromegaly patients previously treated with LA-SRLs: steady state IGF-1 change by dose; format: in vivo, human; conditions: baseline = IGF-1 at last LA-SRL injection
# Excerpt: The switch to Compound A-monohydrochloride occurred 4 weeks after last LA-SRL injection.
# [9] = Cohort M2 (10 mg/day, 10 days), monohydrochloride
# [10] = Cohort M3 (20 mg/day, 10 days), monohydrochloride
smiles,measurement,setting,value
"N#Cc1cccc(-c2ccc3ncc(-c4cc(F)cc(F)c4)c(N4CCC(N)CC4)c3c2)c1O [Compound A, 3-(4-(4-amino-piperidin-1-yl)-3-(3,5-difluoro-phenyl)-quinolin-6-yl)-2-hydroxy-benzonitrile]",change of GH levels from baseline after 13 weeks of treatment,growth hormone (GH); acromegaly patients previously treated with injected SRL depots,did not significantly change from baseline levels
same,GH after withdrawal of treatment,"growth hormone (GH); acromegaly patients, washout",Rise in GH after withdrawal
same,change of IGF-1 levels from baseline after 13 weeks of treatment,"[1]; acromegaly patients previously treated with injected SRL depots, 10-40 mg/day",did not significantly change from baseline
same,IGF-1 after withdrawal of treatment,"[1]; acromegaly patients, washout",Rise in IGF-1 after withdrawal (within 2 weeks)
same,IGF-1 level on long-term treatment,IGF-1 [2],lowers and maintains IGF-1 at levels comparable to prior injected SRL therapy for up to 51 weeks
same,change in fasting plasma glucose,[3]; healthy volunteers,not associated with significant changes in fasting plasma glucose
same,treatment emergent adverse events of hyperglycemia,[3]; healthy volunteers,Two TEAEs of asymptomatic hyperglycemia occurred
same,increase from baseline in serum glucose AUC0-3 hr,"[3]; healthy volunteers, up to 30 mg, placebo 18%",up to 36%
same,glucose concentration by 2 hours post challenge,"[3]; Cohort M2 (10 mg/day, 10 days)",4.3 mmol/L and 77 mg/dL
same,peak glucose concentration 1 hour post oral glucose challenge,"[3]; Cohort M2 (10 mg/day, 10 days)",12.4 mmol/L and 223 mg/dL
same,glucose concentration by 2 hours post challenge,"[3]; Cohort M3 (20 mg/day, 10 days)",5.8 mmol/L and 104 mg/dL
same,peak glucose concentration 1 hour post oral glucose challenge,"[3]; Cohort M3 (20 mg/day, 10 days)",12.2 mmol/L and 220 mg/dL
same,tolerability and safety profile,subjects with acromegaly [4],well tolerated with a safety profile similar to that of SRLs
same,reduction of exposures (Cmax and AUC) when administered with PPI,"[5]; Cohort 5, 60 mg SDD tablets",~40%
same,reduction of exposures (Cmax and AUC) when administered with low-fat meal,"[5]; Cohort 5, 60 mg SDD tablets",~60%
same,reduction of exposures when administered with high-fat meal,[5]; SDD tablets,> 80%
same,bioavailability,[6]; read-out: estimated bioavailability,~70%
same,half-life,[6]; read-out: observed half-life,42 to 50 h
same,"change in total ASD score from Baseline to week 13/EoT, median (IQR)","subjects with acromegaly [7]; n=18, score range 0-70","−0.43 (−5.0, 2.4)"
same,"patients ""minimally improved"" or ""no change"" on PGI-I",subjects with acromegaly [7]; week 13/EoT,26 (55.3%) patients
same,patients reporting worsening on PGI-I,subjects with acromegaly [7]; week 13/EoT,No patients reported any degree of worsening
same,"patients ""very much improved"" or ""much improved"" on PGI-I","subjects with acromegaly [7]; week 13/EoT, compared to before the study, while treated with depot SRLs",11 (23.4%) patients
"Cl.N#Cc1cccc(-c2ccc3ncc(-c4cc(F)cc(F)c4)c(N4CCC(N)CC4)c3c2)c1O [Compound A-HCl, 3-[4-(4-amino-piperidin-1-yl)-3-(3,5-difluoro-phenyl)-quinolin-6-yl]-2-hydroxy-benzonitrile monohydrochloride]",steady state IGF-1 change from baseline,IGF-1 [8]; 10 and 20 mg per day,IGF-1 levels that were above baseline
same,steady state IGF-1 change from baseline,IGF-1 [8]; 30/day and 40 mg/day,changes from baseline of near zero
same,"Glucose AUC (0-3 hr) Difference (SE), oral glucose tolerance test","[3]; healthy volunteers, 7 days - 5 mg/day, Day −7 vs day after last dose",3.8 (4.00) h*mmol/L
same,"Glucose AUC (0-3 hr) Difference (SE), oral glucose tolerance test","[3]; healthy volunteers, 10 days - 10 mg/day",2.4 (3.19) h*mmol/L
same,"Glucose AUC (0-3 hr) Difference (SE), oral glucose tolerance test","[3]; healthy volunteers, 10 days - 20 mg/day",5.1 (3.12) h*mmol/L
same,"Glucose AUC (0-3 hr) Difference (SE), oral glucose tolerance test","[3]; healthy volunteers, 10 days - 30 mg/day, monohydrochloride",3.2 h*mmol/L and 3.2 (1.34) h*mmol/L
same,change in fasting plasma glucose,[3]; healthy volunteers,wasn't significantly changed
same,treatment emergent adverse events of hyperglycemia,[3]; healthy volunteers,two treatment emergent adverse effects (TEAEs) of asymptomatic hyperglycemia occurred
same,glucose concentration by 2 hours post challenge,[3]; [9],77 mg/dL and 4.3 mmol/L
same,peak glucose concentration 1 hour post oral glucose challenge,[3]; [9],12.4 mmol/L and 223 mg/dL
same,glucose concentration by 2 hours post challenge,[3]; [10],5.8 mmol/L and 104 mg/dL
same,peak glucose concentration 1 hour post oral glucose challenge,[3]; [10],12.2 mmol/L and 220 mg/dL

# From patent publication US20240366587A1, “USES OF A SOMATOSTATIN MODULATOR FOR THE TREATMENT OF DISEASE” (Crinetics Pharmaceuticals, Inc., priority 2021, published 2024)
